Read-outs that look alike come from different tables or passages of the source.
Columns and labels:
USP1/UAF1 enzyme = USP1/UAF1 enzyme (Homo sapiens, UniProt O94782); assay: USP1/UAF1 deubiquitination assay (ubiquitin-rhodamine 110 substrate); format: biochemical; settings: read-out: USP1 IC50 (Ub-Rho)
Summary of the method: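 0.05 nM USP1/UAF1 was preincubated 10 min with compounds (dose response from 10 μM) in 50 mM Tris-HCl pH 7.8, 0.5 mM EDTA, 0.01% BSA, 1 mM DTT, 0.01% Tween-20. 150 nM ubiquitin-rhodamine 110 started the reaction, read kinetically 30 min at Ex480/Em540; IC50 by four-parameter fit versus no-enzyme and DMSO controls.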

[1] = tested on: Ub-PCNA levels in the nucleus of ES2 cells (USP1 activity); assay: ES2 Ub-PCNA immunofluorescence (IF) assay; format: cell-based; settings: ES2 cells, 3 hours, Ub-PCNA immunofluorescence, read-out: USP1 IC50 (Ub-PCNA)
Procedure: USP1 is a deubiquitinating enzyme that removes ubiquitin from mono-ubiquitinated Proliferating Cell Nuclear Antigen (Ub-PCNA). The levels of Ub-PCNA in the nucleus of cells can be used to assess the activity of USP1. An immunofluorescence assay can be established to monitor Ub-PCNA levels in the ovarian cancer cell line, ES2.
An assay can be performed by first plating 5000 ES2 cells per well in black 96 well plates (Corning #3904) and then incubating overnight at 37° C. and 5% CO2. Compounds, resuspended in DMSO, can be added to the cells, to a final DMSO concentration of 0.3%. Plates can be incubated at 37° C. and 5% CO2 for 3 hours.
Cells can be then fixed and stained by first removing the media from each plate and fixing the cells with −20° C. methanol for 5 minutes at room temperature. Fixation plates can be washed with Tris buffered saline with tween (Boston Bioproducts #IBB-855) 5 times for 5 minutes each. Plates can be blocked for 1 hour with 50 μl of Odyssey blocking buffer (Licor #327-50000) at room temperature with rocking. Block can be removed from all wells and 50 μl of primary antibody was added to each well. Ub-PCNA ab (Cell Signaling Technology #13439) can be diluted at 1:400 in Odyssey blocking buffer. Plates can be sealed and incubated overnight at 4° C. Primary antibodies can be removed from the plates and plates can be washed with Tris buffered saline with tween 5 times for 5 minutes. Plates can be stained for 1 hour at room temperature with rocking with 50 μl of secondary antibodies diluted 1:10,000 in Odyssey blocking buffer at room temperature (anti-rabbit Alexa 488). Antibodies can be removed from the plates and plates can be washed with Tris buffered saline with tween 3 times for 5 minutes. Plates can be washed once with DAPI (Chemometec #910-3012) stain diluted 1:5000 (Stock solution of 500 μg/ml) in tris buffered saline with tween for 5 minutes. DAPI stain can be removed and plates can be washed one additional time for 5 minutes with tris buffered saline with tween. Wash can be removed from the plate and 100 μl tris buffered saline with tween can be added back to all wells, Plates can be sealed with Foil seals or black plate seals and plates can be stored at 4° C. until they can be imaged.
Imaging of the plates can be performed by first locating the nuclei using the DAPI stain. A mask can be created by drawing a circle slightly smaller than each nucleus. Ub-PCNA intensities can be measured for each individual nucleus counted. A histogram of all Ub-PCNA nuclear intensities measured in untreated wells can be generated and a 95% cutoff can be established. This 95% cutoff can be used to determine the number of Positive cells that have Ub-PCNA values higher than the 95% cutoff. The number of positive cells can be expressed as a percentage by dividing by the total number of cells in the well. This percent positive value can be used to graph all data and to determine AC50 values.
USP1 is a deubiquitinating enzyme that removes ubiquitin from mono-ubiquitinated
Proliferating Cell Nuclear Antigen (Ub-PCNA). The levels of Ub-PCNA in the nucleus of cells was used to assess the activity of USP1. An immunofluorescence assay was established to monitor Ub-PCNA levels in the ovarian cancer cell line, ES2.
This assay was performed by first plating 5000 ES2 cells per well in black 96 well plates (Corning #3904) and then incubated overnight at 37° C. and 5% CO2. Compounds, resuspended in DMSO, were added to the cells, to a final DMSO concentration of 0.3%. Plates were incubated at 37° C. and 5% CO2 for 3 hours.
Cells were then fixed and stained by first removing the media from each plate and fixing the cells with −20° C. methanol for 5 minutes at room temperature. Following fixation plates were washed with Tris buffered saline with tween (Boston Bioproducts ABB-855) 5 times for 5 minutes each. Plates were blocked for 1 hour with 50μ.1 of Odyssey blocking buffer (Licor #327-50000) at room temperature with rocking. […]

[2] = ADME solubility determination in PBS at pH 2.0 and pH 7.4; format: physicochemical; settings: for solubility at 24 h: phosphate buffered saline, 25 °C, thermodynamic from solid
Procedure: Certain Compounds of the Disclosure were assessed for ADME solubility at pH 2.0 and pH 7.4.
Stock solutions were prepared by adding each compound to DMSO at a concentration of 10 mM. Samples were prepared by adding 50 μL of each stock solution to separate vials. The vials were loaded onto a 96-well rack and dried. 500 μL of Phosphate Buffered Saline (PBS) pH 7.4 or PBS pH 2.0 were added into each vial. The vials were then shaken at 25° C. and 1,100 rpm for 24 hours.
After 24 hours, the vials were centrifuged at 3220 G and 25° C. for 30 minutes. The supernatant fluid was analyzed by LC-MS/MS against a standard of known concentration. The solubility of each sample was then calculated using the equation below: […]
where DF is the dilution factor.

[3] = Liver microsomal metabolic stability, rat liver microsomes (RLM); settings: rat, liver microsomes, t1/2 (min) in RLM, 1 μM compound, 1 mg/mL microsomes, NADPH
[4] = Liver microsomal metabolic stability, human liver microsomes (HLM); settings: human, liver microsomes
Procedure: Samples were prepared by adding 222.5 μL of a master solution (100 mM phosphate buffer and 1 mg/mL liver microsomes (HLM or RLM)) and 25 μL of a 10 mM NADPH solution to incubation plates, which were then warmed for 10 min. Each compound was separately dissolved in DMSO to prepare 10 mM stock solutions, which were then diluted to 100 μM with acetonitrile. A reaction was started by adding 2.5 μL of the 100 μM solution of each compound to separate incubation plates such that the final concentration of for each compound in each plate was 1 μM.
25 μL aliquots of each sample were taken at 0.5, 5, 10, 15, 20 and 30 minutes, and the reaction was stopped by adding 5 volumes of cold acetonitrile with IS (100 nM alprazolam, 200 nM caffeine and 100 nM tolbutamide). The samples were then centrifuged at 3,220 G for 30 minutes, and 100 μL of the supernatant fluid was mixed with 100 μL of ultra-pure H2O.
The samples were then analyzed by LC-MS/MS. Peak areas were determined from extracted ion chromatograms. Slope values (k) were determined by linear regression of the natural logarithm of the remaining percentage of the compound vs. incubation time curve. The in vitro half-life (in vitro t1/2) was determined from the slope value using the following equation:

[5] = pH 2, aqueous buffer, PBS pH 2.0, 25° C., read-out: Solubility at pH 2.0
[6] = pH 7.4, aqueous buffer, PBS pH 7.4, 25° C., read-out: Solubility at pH 7.4

Sequence of USP1/UAF1 enzyme (O94782 whole entry): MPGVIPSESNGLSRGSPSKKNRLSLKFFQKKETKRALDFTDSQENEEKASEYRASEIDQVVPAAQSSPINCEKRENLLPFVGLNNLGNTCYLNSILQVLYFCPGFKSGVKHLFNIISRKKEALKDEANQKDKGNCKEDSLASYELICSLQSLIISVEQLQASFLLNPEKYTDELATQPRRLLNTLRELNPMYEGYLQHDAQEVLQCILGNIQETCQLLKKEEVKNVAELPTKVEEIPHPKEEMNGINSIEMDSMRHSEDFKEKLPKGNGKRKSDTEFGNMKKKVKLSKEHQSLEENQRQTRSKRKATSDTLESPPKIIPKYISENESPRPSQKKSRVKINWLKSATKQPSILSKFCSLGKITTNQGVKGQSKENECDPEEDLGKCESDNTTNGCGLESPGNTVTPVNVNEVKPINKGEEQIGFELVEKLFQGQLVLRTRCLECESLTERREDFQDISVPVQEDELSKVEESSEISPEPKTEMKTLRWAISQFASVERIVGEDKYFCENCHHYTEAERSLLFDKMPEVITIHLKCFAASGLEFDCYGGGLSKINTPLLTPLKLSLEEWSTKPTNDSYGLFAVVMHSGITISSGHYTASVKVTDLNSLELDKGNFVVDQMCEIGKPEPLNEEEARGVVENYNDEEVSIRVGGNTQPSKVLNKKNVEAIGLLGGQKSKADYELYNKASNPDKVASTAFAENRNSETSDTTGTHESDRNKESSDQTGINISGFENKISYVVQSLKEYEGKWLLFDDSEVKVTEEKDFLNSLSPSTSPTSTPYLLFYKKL
Sequence of USP1/UAF1 enzyme (Q8TAF3 whole entry partner): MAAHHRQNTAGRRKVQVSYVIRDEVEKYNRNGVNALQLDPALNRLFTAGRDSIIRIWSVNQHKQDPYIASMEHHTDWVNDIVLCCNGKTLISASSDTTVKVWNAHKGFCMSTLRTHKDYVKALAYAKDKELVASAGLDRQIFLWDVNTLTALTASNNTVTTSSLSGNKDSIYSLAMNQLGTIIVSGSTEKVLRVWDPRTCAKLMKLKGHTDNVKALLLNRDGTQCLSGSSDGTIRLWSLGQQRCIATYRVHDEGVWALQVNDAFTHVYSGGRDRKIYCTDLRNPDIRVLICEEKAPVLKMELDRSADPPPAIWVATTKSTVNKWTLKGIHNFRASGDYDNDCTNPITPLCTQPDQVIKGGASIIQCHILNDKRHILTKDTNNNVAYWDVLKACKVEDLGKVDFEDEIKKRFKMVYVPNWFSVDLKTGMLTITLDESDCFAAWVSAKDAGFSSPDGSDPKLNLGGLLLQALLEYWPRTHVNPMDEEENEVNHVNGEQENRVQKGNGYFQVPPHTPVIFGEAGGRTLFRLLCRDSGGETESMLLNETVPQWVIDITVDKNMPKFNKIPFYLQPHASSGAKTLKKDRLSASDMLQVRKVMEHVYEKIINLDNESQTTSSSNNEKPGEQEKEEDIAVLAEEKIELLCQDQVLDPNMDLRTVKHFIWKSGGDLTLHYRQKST

SMILES | IC50 (USP1/UAF1 enzyme) [µM] | IC50 ([1]; Homo sapiens, ES-2) [µM] | solubility at 24 h [2, 5] [µM] | solubility at 24 h [2, 6] [µM] | half-life at 1 μM [3] [min] | half-life at 1 μM [4] [min] | IC50 [1] [µM] | Solubility at pH 2.0 (μM) ([2]; PBS pH 2.0, 25° C., 24 hours) | Solubility at pH 7.4 (μM) ([2]; PBS pH 7.4, 25° C., 24 hours)
COc1ncnc(C2CC2)c1-c1cc2n(n1)CCC(C)N2Cc1ccc(-c2nc(C(F)(F)F)cn2C)cc1 (racemic) [Example 48, 2-(4-cyclopropyl-6-methoxypyrimidin-5-yl)-5-methyl-4-(4-(1-methyl-4-(trifluoromethyl)-1H-imidazol-2-yl)benzyl)-4,5,6,7-tetrahydropyrazolo[1,5-α]pyrimidine] | < 0.1 | < 0.1 | ≥ 10 | ≥ 10 | < 25 | < 25 |  |  | 
COc1ncnc(C2CC2)c1-c1cc2n(n1)C(C)CCN2Cc1ccc(-c2nc(C(F)(F)F)cn2C)cc1 (racemic) [Example 51, 2-(4-cyclopropyl-6-methoxypyrimidin-5-yl)-7-methyl-4-(4-(1-methyl-4-(trifluoromethyl)-1H-imidazol-2-yl)benzyl)-4,5,6,7-tetrahydropyrazolo[1,5-α]pyrimidine] | < 0.1 | < 0.1 | ≥ 10 | < 10 | < 25 | < 25 |  |  | 
Cc1cnn(C(C)C)c1-c1cc2n(n1)CCCN2Cc1ccc(-c2nc(C(F)(F)F)cn2C)cc1 [Example 47, 2-(1-isopropyl-4-methyl-1H-pyrazol-5-yl)-4-(4-(1-methyl-4-(trifluoromethyl)-1H-imidazol-2-yl)benzyl)-4,5,6,7-tetrahydropyrazolo[1,5-α]pyrimidine] | < 0.1 |  |  |  |  |  | < 0.1 | ++ (“++” indicates 10 μM or greater) | + (“+” indicates less than 10 μM)
CCn1cc(C(F)(F)F)nc1-c1ccc(CN2C(=O)CCn3nc(-c4c(Cl)cnn4C(C)(C)COC)cc32)cc1F [Example 162] | < 0.1 | 0.1 to 0.5 | ≥ 10 | ≥ 10 | < 25 |  |  |  | 
CCn1cc(C(F)(F)F)nc1-c1ccc(CN2C(=O)CCn3nc(-c4c(Cl)cnn4C(C)C)c(C#N)c32)cc1 [Example 223, 2-(4-chloro-1-isopropyl-1H-pyrazol-5-yl)-4-(4-(1-ethyl-4-(trifluoromethyl)-1H-imidazol-2-yl)benzyl)-5-oxo-4,5,6,7-tetrahydropyrazolo[1,5-α]pyrimidine-3-carbonitrile] | < 0.1 |  | < 10 | < 10 | > 25 | < 25 |  |  | 
CC(C)n1ncc(Cl)c1-c1cc2n(n1)CC(O)C(=O)N2Cc1ccc(-c2nc(C(F)(F)F)cn2C)cc1 (stereo not drawn) [Example 231, 2-(4-chloro-1-isopropyl-1H-pyrazol-5-yl)-6-hydroxy-4-(4-(1-methyl-4-(trifluoromethyl)-1H-imidazol-2-yl)benzyl)-6,7-dihydropyrazolo[1,5-α]pyrimidin-5(4H)-one] | 0.1 to 0.5 |  | < 10 | < 10 | > 25 | > 25 |  |  | 
CCn1cc(C(F)(F)F)nc1-c1ccc(NC2CCCn3nc(-c4c(Cl)cnn4C(C)C)nc32)cc1F (stereo not drawn) [Example 257, 2-(4-chloro-1-isopropyl-1H-pyrazol-5-yl)-N-(4-(1-ethyl-4-(trifluoromethyl)-1H-imidazol-2-yl)-3-fluorophenyl)-5,6,7,8-tetrahydro-[1,2,4]triazolo[1,5-a]pyridin-8-amine] | 0.1 to 0.5 |  | < 10 | < 10 | > 25 | > 25 |  |  | 
COc1cccnc1-c1ccc(CN2C(=O)CCn3nc(-c4c(Cl)cnn4C(C)C)cc32)cc1Cl [Example 288] | < 0.1 |  | ≥ 10 | < 10 | < 25 | < 25 |  |  | 
CC(C)Oc1cccnc1-c1ccc(CN2C(=O)CCn3nc(-c4c(Cl)cnn4C(C)C)cc32)cc1Cl [Example 310] | < 0.1 |  | ≥ 10 | < 10 | < 25 | < 25 |  |  | 
CC(C)n1ncc(Cl)c1-c1cc2n(n1)CCC(=O)N2Cc1ccc(-c2ncccc2N(C)C)c(Cl)c1 [Example 312] | < 0.1 |  | ≥ 10 | < 10 | < 25 | < 25 |  |  | 
CCn1cc(C(F)(F)F)nc1-c1ccc(CN2C(=O)CCn3nc(-c4c(C(F)F)cnn4C(C)C)cc32)cc1F [Example 328, 2-(4-(difluoromethyl)-1-isopropyl-1H-pyrazol-5-yl)-4-(4-(1-ethyl-4-(trifluoromethyl)-1H-imidazol-2-yl)-3-fluorobenzyl)-6,7-dihydropyrazolo[1,5-α]pyrimidin-5(4H)-one] | 0.1 to 0.5 |  | ≥ 10 | < 10 | > 25 | > 25 |  |  | 
CCn1cc(C(F)(F)F)nc1-c1ccc([C@@H](C)n2c(=O)ccn3nc(-c4c(OC)ncnc4C4CC4)nc23)cc1F [Example 341, (R)-2-(4-cyclopropyl-6-methoxypyrimidin-5-yl)-4-(1-(4-(1-ethyl-4-(trifluoromethyl)-1H-imidazol-2-yl)-3-fluorophenyl)ethyl)-[1,2,4]triazolo[1,5-a]pyrimidin-5(4H)-one] | < 0.1 |  | ≥ 10 | ≥ 10 | > 25 | > 25 |  |  | 
CCn1cc(C(F)(F)F)nc1-c1ccc([C@H](C)n2c(=O)ccn3nc(-c4c(OC)ncnc4C4CC4)nc23)cc1F [Example 342, (S)-2-(4-cyclopropyl-6-methoxypyrimidin-5-yl)-4-(1-(4-(1-ethyl-4-(trifluoromethyl)-1H-imidazol-2-yl)-3-fluorophenyl)ethyl)-[1,2,4]triazolo[1,5-a]pyrimidin-5(4H)-one] | < 0.1 |  | ≥ 10 | ≥ 10 | > 25 | > 25 |  |  | 
